Measured values taken from the NIST ThermoML archive (doi:10.1021/je060271a).
± gives the expanded uncertainty stated by the source.

Conditions: 283.16 K, Liquid, Vibrating tube method

SMILES: CCCC(=O)OCC(COC(=O)CCC)(COC(=O)CCC)COC(=O)CCC [pentaerythritol tetrabutyrate]
- mass density (19617 kPa): 1070.2 ± 1.3 kg/m3
- mass density (19631 kPa): 1070.3 ± 1.3 kg/m3
- mass density (19642 kPa): 1070.3 ± 1.3 kg/m3
- mass density (19654 kPa): 1070.3 ± 1.3 kg/m3
- mass density (19669 kPa): 1070.3 ± 1.3 kg/m3
- mass density (19681 kPa): 1070.2 ± 1.3 kg/m3
- mass density (19694 kPa): 1070.3 ± 1.3 kg/m3
- mass density (19706 kPa): 1070.4 ± 1.3 kg/m3
- mass density (19717 kPa): 1070.3 ± 1.3 kg/m3
- mass density (19732 kPa): 1070.3 ± 1.3 kg/m3
- mass density (19743 kPa): 1070.3 ± 1.3 kg/m3
- mass density (19757 kPa): 1070.3 ± 1.3 kg/m3
- mass density (19769 kPa): 1070.3 ± 1.3 kg/m3
- mass density (19781 kPa): 1070.4 ± 1.3 kg/m3
- mass density (19796 kPa): 1070.4 ± 1.3 kg/m3
- mass density (19807 kPa): 1070.3 ± 1.3 kg/m3
- mass density (19819 kPa): 1070.4 ± 1.3 kg/m3
- mass density (19834 kPa): 1070.4 ± 1.3 kg/m3
- mass density (19846 kPa): 1070.3 ± 1.3 kg/m3
- mass density (19858 kPa): 1070.5 ± 1.3 kg/m3
- mass density (19870 kPa): 1070.5 ± 1.3 kg/m3
- mass density (19885 kPa): 1070.4 ± 1.3 kg/m3
- mass density (19897 kPa): 1070.4 ± 1.3 kg/m3
- mass density (19909 kPa): 1070.4 ± 1.3 kg/m3
- mass density (19921 kPa): 1070.3 ± 1.3 kg/m3
- mass density (19936 kPa): 1070.4 ± 1.3 kg/m3
- mass density (19947 kPa): 1070.4 ± 1.3 kg/m3
- mass density (19962 kPa): 1070.5 ± 1.3 kg/m3
- mass density (19975 kPa): 1070.6 ± 1.3 kg/m3
- mass density (19986 kPa): 1070.5 ± 1.3 kg/m3
- mass density (20001 kPa): 1070.5 ± 1.3 kg/m3
- mass density (20014 kPa): 1070.5 ± 1.3 kg/m3
- mass density (20026 kPa): 1070.3 ± 1.3 kg/m3
- mass density (20039 kPa): 1070.6 ± 1.3 kg/m3
- mass density (20053 kPa): 1070.5 ± 1.3 kg/m3
- mass density (20065 kPa): 1070.5 ± 1.3 kg/m3
- mass density (20077 kPa): 1070.5 ± 1.3 kg/m3
- mass density (20092 kPa): 1070.5 ± 1.3 kg/m3
- mass density (20104 kPa): 1070.5 ± 1.3 kg/m3
- mass density (20117 kPa): 1070.6 ± 1.3 kg/m3
- mass density (20130 kPa): 1070.5 ± 1.3 kg/m3
- mass density (20145 kPa): 1070.6 ± 1.3 kg/m3
- mass density (20157 kPa): 1070.7 ± 1.3 kg/m3
- mass density (20170 kPa): 1070.5 ± 1.3 kg/m3
- mass density (20185 kPa): 1070.6 ± 1.3 kg/m3
- mass density (20197 kPa): 1070.6 ± 1.3 kg/m3
- mass density (20210 kPa): 1070.6 ± 1.3 kg/m3
- mass density (20225 kPa): 1070.6 ± 1.3 kg/m3
- mass density (20237 kPa): 1070.6 ± 1.3 kg/m3
- mass density (20250 kPa): 1070.6 ± 1.3 kg/m3
- mass density (20264 kPa): 1070.7 ± 1.3 kg/m3
- mass density (20277 kPa): 1070.6 ± 1.3 kg/m3
- mass density (20290 kPa): 1070.8 ± 1.3 kg/m3
- mass density (20305 kPa): 1070.6 ± 1.3 kg/m3
- mass density (20317 kPa): 1070.6 ± 1.3 kg/m3
- mass density (20330 kPa): 1070.7 ± 1.3 kg/m3
- mass density (20468 kPa): 1070.7 ± 1.3 kg/m3
- mass density (20480 kPa): 1070.8 ± 1.3 kg/m3
- mass density (20493 kPa): 1070.6 ± 1.3 kg/m3
- mass density (20506 kPa): 1070.8 ± 1.3 kg/m3
- mass density (20521 kPa): 1070.7 ± 1.3 kg/m3
- mass density (20534 kPa): 1070.8 ± 1.3 kg/m3
- mass density (20548 kPa): 1070.8 ± 1.3 kg/m3
- mass density (20563 kPa): 1070.8 ± 1.3 kg/m3
- mass density (20576 kPa): 1070.8 ± 1.3 kg/m3
- mass density (20592 kPa): 1070.8 ± 1.3 kg/m3
- mass density (20605 kPa): 1070.8 ± 1.3 kg/m3
- mass density (20618 kPa): 1070.8 ± 1.3 kg/m3
- mass density (20773 kPa): 1070.9 ± 1.3 kg/m3
- mass density (20787 kPa): 1070.9 ± 1.3 kg/m3
- mass density (20800 kPa): 1070.9 ± 1.3 kg/m3
- mass density (20816 kPa): 1070.9 ± 1.3 kg/m3
- mass density (20829 kPa): 1071 ± 1.3 kg/m3
- mass density (20845 kPa): 1071 ± 1.3 kg/m3
- mass density (20858 kPa): 1070.8 ± 1.3 kg/m3
- mass density (20872 kPa): 1071 ± 1.3 kg/m3
- mass density (20886 kPa): 1071 ± 1.3 kg/m3
- mass density (20900 kPa): 1071 ± 1.3 kg/m3
- mass density (20914 kPa): 1070.9 ± 1.3 kg/m3
- mass density (20930 kPa): 1071 ± 1.3 kg/m3
- mass density (21000 kPa): 1071 ± 1.3 kg/m3
- mass density (21016 kPa): 1071 ± 1.3 kg/m3
- mass density (21030 kPa): 1071 ± 1.3 kg/m3
- mass density (21044 kPa): 1071 ± 1.3 kg/m3
- mass density (21060 kPa): 1071 ± 1.3 kg/m3
- mass density (21076 kPa): 1071 ± 1.3 kg/m3
- mass density (21090 kPa): 1071.1 ± 1.3 kg/m3
- mass density (21104 kPa): 1071.1 ± 1.3 kg/m3
- mass density (21118 kPa): 1071.1 ± 1.3 kg/m3
- mass density (21134 kPa): 1071 ± 1.3 kg/m3
- mass density (21148 kPa): 1071.1 ± 1.3 kg/m3
- mass density (21162 kPa): 1071 ± 1.3 kg/m3
- mass density (21178 kPa): 1071.1 ± 1.3 kg/m3
- mass density (21192 kPa): 1071 ± 1.3 kg/m3
- mass density (21209 kPa): 1071 ± 1.3 kg/m3
- mass density (21223 kPa): 1071.1 ± 1.3 kg/m3
- mass density (21237 kPa): 1071.1 ± 1.3 kg/m3
- mass density (21251 kPa): 1071.1 ± 1.3 kg/m3
- mass density (21267 kPa): 1071.1 ± 1.3 kg/m3
- mass density (21282 kPa): 1071.2 ± 1.3 kg/m3
- mass density (21295 kPa): 1071.3 ± 1.3 kg/m3
- mass density (21312 kPa): 1071.2 ± 1.3 kg/m3
- mass density (21326 kPa): 1071.2 ± 1.3 kg/m3
- mass density (21340 kPa): 1071.1 ± 1.3 kg/m3
- mass density (21400 kPa): 1071.2 ± 1.3 kg/m3
- mass density (21417 kPa): 1071.2 ± 1.3 kg/m3
- mass density (21431 kPa): 1071.2 ± 1.3 kg/m3
- mass density (21445 kPa): 1071.3 ± 1.3 kg/m3
- mass density (21463 kPa): 1071.3 ± 1.3 kg/m3
- mass density (21477 kPa): 1071.2 ± 1.3 kg/m3
- mass density (21491 kPa): 1071.2 ± 1.3 kg/m3
- mass density (21508 kPa): 1071.2 ± 1.3 kg/m3
- mass density (21523 kPa): 1071.4 ± 1.3 kg/m3
- mass density (21537 kPa): 1071.2 ± 1.3 kg/m3
- mass density (21554 kPa): 1071.4 ± 1.3 kg/m3
- mass density (21568 kPa): 1071.3 ± 1.3 kg/m3
- mass density (21600 kPa): 1071.4 ± 1.3 kg/m3
- mass density (21723 kPa): 1071.4 ± 1.3 kg/m3
- mass density (21785 kPa): 1071.4 ± 1.3 kg/m3
- mass density (21800 kPa): 1071.4 ± 1.3 kg/m3
- mass density (21818 kPa): 1071.5 ± 1.3 kg/m3
- mass density (22023 kPa): 1071.5 ± 1.3 kg/m3
- mass density (22039 kPa): 1071.6 ± 1.3 kg/m3
- mass density (22057 kPa): 1071.6 ± 1.3 kg/m3
- mass density (22072 kPa): 1071.6 ± 1.3 kg/m3
- mass density (22087 kPa): 1071.6 ± 1.3 kg/m3
- mass density (22102 kPa): 1071.6 ± 1.3 kg/m3
- mass density (22121 kPa): 1071.5 ± 1.3 kg/m3
- mass density (22136 kPa): 1071.6 ± 1.3 kg/m3
- mass density (22154 kPa): 1071.6 ± 1.3 kg/m3
- mass density (22169 kPa): 1071.6 ± 1.3 kg/m3
- mass density (22184 kPa): 1071.6 ± 1.3 kg/m3
- mass density (22200 kPa): 1071.7 ± 1.3 kg/m3
- mass density (22219 kPa): 1071.6 ± 1.3 kg/m3
- mass density (22234 kPa): 1071.6 ± 1.3 kg/m3
- mass density (22250 kPa): 1071.7 ± 1.3 kg/m3
- mass density (22266 kPa): 1071.6 ± 1.3 kg/m3
- mass density (22284 kPa): 1071.6 ± 1.3 kg/m3
- mass density (22300 kPa): 1071.7 ± 1.3 kg/m3
- mass density (22316 kPa): 1071.7 ± 1.3 kg/m3
- mass density (22331 kPa): 1071.7 ± 1.3 kg/m3
- mass density (22790 kPa): 1071.9 ± 1.3 kg/m3
- mass density (22826 kPa): 1071.9 ± 1.3 kg/m3
- mass density (22842 kPa): 1072 ± 1.3 kg/m3
- mass density (22861 kPa): 1072.1 ± 1.3 kg/m3
- mass density (22877 kPa): 1072 ± 1.3 kg/m3
